We go through four compounds from ChEMBL document CHEMBL1201862, “PubChem BioAssay data set” (2004).

For test [1], the target named is Intestinal-type alkaline phosphatase (Homo sapiens, UniProt P09923). The experiment in a line: Dose Response confirmation of uHTS hits from a small molecule inhibitors of human intestinal alkaline phosphatase via a luminescent assay. [Related pubchem assays (depositor defined):AID2544, AID2574]. In kind it is functional.
Test [2] addresses T1, Apoptotic protease-activating factor 1 (Homo sapiens, UniProt O14727).
T1 sequence (O14727 whole entry): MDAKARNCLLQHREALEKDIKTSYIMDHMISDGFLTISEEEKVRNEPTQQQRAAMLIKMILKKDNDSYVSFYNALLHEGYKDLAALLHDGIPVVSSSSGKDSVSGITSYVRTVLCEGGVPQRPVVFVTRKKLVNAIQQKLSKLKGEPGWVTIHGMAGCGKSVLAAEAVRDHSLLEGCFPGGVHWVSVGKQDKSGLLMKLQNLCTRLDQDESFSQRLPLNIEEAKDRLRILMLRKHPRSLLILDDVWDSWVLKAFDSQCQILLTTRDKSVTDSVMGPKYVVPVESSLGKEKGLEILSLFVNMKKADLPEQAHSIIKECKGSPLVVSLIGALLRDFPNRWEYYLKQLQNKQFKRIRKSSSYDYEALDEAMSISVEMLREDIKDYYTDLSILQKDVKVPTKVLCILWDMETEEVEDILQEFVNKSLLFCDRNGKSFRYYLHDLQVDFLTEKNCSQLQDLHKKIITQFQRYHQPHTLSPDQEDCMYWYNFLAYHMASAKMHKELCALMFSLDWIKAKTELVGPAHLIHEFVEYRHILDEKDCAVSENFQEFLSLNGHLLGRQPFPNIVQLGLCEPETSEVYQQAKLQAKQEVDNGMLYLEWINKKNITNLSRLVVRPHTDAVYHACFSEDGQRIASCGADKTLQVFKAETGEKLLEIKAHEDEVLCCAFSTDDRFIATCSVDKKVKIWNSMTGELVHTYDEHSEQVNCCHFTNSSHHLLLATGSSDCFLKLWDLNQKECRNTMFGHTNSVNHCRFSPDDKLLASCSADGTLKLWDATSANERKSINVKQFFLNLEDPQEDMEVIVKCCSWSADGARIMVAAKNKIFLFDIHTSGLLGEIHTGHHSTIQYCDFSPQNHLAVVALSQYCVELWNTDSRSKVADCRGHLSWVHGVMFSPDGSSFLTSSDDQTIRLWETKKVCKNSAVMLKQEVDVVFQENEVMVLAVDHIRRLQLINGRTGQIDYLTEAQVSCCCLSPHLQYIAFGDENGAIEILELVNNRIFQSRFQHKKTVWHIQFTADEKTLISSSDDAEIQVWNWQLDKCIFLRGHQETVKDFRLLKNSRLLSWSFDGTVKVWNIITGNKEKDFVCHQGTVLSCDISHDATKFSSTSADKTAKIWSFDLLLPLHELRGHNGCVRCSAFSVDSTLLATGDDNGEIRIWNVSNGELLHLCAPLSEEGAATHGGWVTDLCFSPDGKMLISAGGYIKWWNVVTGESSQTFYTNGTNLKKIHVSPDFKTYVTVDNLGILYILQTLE
In kind it is functional.

A further test has as its target 14-3-3 protein gamma (Homo sapiens, UniProt P61981). The experiment in a line: modulators of 14-3-3 gamma client binding – dose response (AID 711). In kind it is functional.
For test [3], the target named is T2, RNA-binding protein pos-1 (Caenorhabditis elegans, UniProt G5EF15).
T2 sequence (G5EF15 whole entry): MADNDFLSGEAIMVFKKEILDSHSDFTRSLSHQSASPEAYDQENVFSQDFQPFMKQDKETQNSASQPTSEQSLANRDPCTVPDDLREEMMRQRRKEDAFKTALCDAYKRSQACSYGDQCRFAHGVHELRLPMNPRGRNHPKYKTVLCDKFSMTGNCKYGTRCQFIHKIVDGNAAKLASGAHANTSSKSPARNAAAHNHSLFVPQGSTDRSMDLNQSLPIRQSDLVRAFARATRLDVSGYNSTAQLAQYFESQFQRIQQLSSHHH
The experiment in a line: inhibitors of POS-1/mex-3 RNA binding, dose response, biochemical, fluorescence polarization (AID 1964).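 Also: purified POS-1 fused to maltose binding protein made in E. coli; potency of compounds blocking POS-1 binding to fluorescent RNA.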 In general terms: Fluorescence polarisation rises when a labelled molecule tumbles more slowly, as on binding a larger partner.

The next test concerns the target Ephrin type-A receptor 2 (Homo sapiens, UniProt P29317). In kind it is functional.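 Also: EPHA2 tested as one member of a kinome-wide kinase panel.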
Test [4] deals with Glycogen synthase kinase-3 alpha (Homo sapiens, UniProt P49840). In kind it is functional.
Test [5] addresses Dual specificity tyrosine-phosphorylation-regulated kinase 4 (Homo sapiens, UniProt Q9NR20). In kind it is functional.
Test [6] deals with MAP kinase-activated protein kinase 2 (Homo sapiens, UniProt P49137). In kind it is functional.
MAP kinase-activated protein kinase 2, sequence (P49137 whole entry): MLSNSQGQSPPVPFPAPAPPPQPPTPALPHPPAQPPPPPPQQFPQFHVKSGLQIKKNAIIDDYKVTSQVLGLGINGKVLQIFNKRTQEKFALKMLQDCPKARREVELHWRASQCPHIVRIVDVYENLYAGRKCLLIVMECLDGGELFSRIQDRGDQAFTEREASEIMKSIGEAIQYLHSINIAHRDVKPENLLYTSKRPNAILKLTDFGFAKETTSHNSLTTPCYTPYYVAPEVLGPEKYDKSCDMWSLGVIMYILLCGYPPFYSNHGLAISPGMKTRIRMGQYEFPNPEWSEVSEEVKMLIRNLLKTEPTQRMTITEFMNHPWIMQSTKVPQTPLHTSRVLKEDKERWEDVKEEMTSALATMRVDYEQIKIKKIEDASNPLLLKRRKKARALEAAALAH
For test [7], the target named is Serine/threonine-protein kinase PAK 1 (Homo sapiens, UniProt Q13153). In kind it is functional.
Test [8] concerns the target Dual specificity protein kinase CLK4 (Homo sapiens, UniProt Q9HAZ1). Type of test: functional.
For test [9], the target named is Mitogen-activated protein kinase kinase kinase 20 (Homo sapiens, UniProt Q9NYL2). In kind it is functional.
Mitogen-activated protein kinase kinase kinase 20, sequence (Q9NYL2 whole entry): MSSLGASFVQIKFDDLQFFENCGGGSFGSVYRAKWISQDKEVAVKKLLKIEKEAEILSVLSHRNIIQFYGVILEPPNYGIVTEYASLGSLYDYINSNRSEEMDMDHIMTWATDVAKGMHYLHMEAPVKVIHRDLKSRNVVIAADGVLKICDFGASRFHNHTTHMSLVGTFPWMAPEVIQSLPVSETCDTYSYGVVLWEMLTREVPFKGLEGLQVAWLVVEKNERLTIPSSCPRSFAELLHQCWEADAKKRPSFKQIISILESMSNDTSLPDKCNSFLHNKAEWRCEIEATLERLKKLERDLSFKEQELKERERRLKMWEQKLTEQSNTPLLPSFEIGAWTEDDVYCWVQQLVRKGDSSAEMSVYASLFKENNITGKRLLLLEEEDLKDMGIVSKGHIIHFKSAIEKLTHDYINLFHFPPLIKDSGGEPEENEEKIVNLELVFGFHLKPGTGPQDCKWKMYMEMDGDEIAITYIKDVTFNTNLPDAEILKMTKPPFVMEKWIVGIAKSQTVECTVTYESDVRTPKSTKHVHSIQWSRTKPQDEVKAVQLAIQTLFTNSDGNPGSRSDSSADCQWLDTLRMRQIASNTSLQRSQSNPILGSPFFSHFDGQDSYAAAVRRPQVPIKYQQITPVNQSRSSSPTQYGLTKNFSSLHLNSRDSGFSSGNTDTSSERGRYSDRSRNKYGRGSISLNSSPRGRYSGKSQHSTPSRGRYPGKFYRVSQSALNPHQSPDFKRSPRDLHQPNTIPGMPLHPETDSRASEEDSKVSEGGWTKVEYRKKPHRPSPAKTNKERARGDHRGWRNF
For the next test, the target named is Activin receptor type-1 (Homo sapiens, UniProt Q04771). The experiment in a line: Navigating the Kinome. Panel member name: ACVR1. Type of test: functional.
Activin receptor type-1, sequence (Q04771 whole entry): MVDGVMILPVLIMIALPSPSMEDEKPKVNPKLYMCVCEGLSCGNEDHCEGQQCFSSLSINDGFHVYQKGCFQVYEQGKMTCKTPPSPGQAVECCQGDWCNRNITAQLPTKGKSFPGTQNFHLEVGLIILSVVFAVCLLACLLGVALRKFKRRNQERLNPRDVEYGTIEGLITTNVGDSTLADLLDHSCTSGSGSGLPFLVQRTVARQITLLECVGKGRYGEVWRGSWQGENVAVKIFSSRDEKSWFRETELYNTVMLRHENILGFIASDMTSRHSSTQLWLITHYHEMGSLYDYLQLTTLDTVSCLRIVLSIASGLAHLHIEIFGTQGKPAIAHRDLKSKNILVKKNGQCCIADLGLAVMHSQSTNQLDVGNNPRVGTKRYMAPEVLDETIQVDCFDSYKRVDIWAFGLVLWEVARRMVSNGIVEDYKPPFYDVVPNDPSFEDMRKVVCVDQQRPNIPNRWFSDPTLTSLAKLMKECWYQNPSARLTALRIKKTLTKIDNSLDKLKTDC
Test [10] deals with Ribosomal protein S6 kinase alpha-3 (Homo sapiens, UniProt P51812). Type of test: functional.
Ribosomal protein S6 kinase alpha-3, sequence (P51812 whole entry): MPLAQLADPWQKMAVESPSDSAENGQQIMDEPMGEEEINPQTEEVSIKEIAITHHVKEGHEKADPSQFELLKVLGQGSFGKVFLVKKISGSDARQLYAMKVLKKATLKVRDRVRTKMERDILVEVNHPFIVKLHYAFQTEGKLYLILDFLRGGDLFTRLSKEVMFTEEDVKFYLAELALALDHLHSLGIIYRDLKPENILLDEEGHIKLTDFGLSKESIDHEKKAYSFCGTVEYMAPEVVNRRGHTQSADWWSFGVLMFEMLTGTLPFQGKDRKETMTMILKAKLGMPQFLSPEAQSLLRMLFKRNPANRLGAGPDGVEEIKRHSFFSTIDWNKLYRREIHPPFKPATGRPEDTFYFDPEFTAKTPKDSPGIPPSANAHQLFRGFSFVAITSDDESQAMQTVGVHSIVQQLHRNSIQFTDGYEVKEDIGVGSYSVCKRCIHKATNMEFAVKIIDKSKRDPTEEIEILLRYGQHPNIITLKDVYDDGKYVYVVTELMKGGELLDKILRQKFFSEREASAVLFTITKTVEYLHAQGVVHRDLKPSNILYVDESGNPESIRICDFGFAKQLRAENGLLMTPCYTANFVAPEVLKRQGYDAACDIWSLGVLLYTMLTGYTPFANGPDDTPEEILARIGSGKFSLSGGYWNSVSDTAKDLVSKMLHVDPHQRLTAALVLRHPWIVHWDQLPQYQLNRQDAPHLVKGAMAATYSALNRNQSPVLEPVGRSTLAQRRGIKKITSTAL
Test [11] concerns the target STE20-like serine/threonine-protein kinase (Homo sapiens, UniProt Q9H2G2). Type of test: functional.
The target of test [12] is Non-receptor tyrosine-protein kinase TYK2 (Homo sapiens, UniProt P29597). In kind it is functional.
For test [13], the target named is Serine/threonine-protein kinase Chk1 (Homo sapiens, UniProt O14757). In kind it is functional.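 Also: measured as one member of a kinome-wide kinase profiling panel.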
Serine/threonine-protein kinase Chk1, sequence (O14757 whole entry): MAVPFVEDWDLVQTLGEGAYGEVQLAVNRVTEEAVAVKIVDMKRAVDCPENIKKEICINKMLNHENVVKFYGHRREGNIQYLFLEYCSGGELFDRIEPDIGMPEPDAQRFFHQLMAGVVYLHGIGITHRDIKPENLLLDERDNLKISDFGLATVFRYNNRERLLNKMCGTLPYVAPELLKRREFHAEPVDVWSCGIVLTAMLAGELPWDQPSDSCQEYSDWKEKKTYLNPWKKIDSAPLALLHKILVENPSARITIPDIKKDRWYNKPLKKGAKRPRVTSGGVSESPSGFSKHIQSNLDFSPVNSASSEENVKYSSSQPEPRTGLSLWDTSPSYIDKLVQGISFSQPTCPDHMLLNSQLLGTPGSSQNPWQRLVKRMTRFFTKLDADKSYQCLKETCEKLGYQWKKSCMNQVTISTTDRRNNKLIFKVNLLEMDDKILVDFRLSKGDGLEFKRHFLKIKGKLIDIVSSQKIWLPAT
Test [14] addresses Cyclin-dependent kinase 5 (Homo sapiens, UniProt Q00535). In kind it is functional.
Test [15] concerns the target Vascular endothelial growth factor receptor 2 (Homo sapiens, UniProt P35968). In kind it is functional.
Test [16] deals with Macrophage colony-stimulating factor 1 receptor (Homo sapiens, UniProt P07333). Type of test: functional.
Test [17] has as its target Death-associated protein kinase 3 (Homo sapiens, UniProt O43293). Type of test: functional.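 Also: measured as one member of a kinome-wide profiling panel.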

Where “and” joins values, the source holds several entries; their conditions need not be identical. Equal entries are not always repeated. Structures can show the parent of a compound that is named as a salt. Calls of active or inactive are those of the source. Bounds are passed on as bounds.

Vascular endothelial growth factor receptor 2, sequence (P35968 whole entry): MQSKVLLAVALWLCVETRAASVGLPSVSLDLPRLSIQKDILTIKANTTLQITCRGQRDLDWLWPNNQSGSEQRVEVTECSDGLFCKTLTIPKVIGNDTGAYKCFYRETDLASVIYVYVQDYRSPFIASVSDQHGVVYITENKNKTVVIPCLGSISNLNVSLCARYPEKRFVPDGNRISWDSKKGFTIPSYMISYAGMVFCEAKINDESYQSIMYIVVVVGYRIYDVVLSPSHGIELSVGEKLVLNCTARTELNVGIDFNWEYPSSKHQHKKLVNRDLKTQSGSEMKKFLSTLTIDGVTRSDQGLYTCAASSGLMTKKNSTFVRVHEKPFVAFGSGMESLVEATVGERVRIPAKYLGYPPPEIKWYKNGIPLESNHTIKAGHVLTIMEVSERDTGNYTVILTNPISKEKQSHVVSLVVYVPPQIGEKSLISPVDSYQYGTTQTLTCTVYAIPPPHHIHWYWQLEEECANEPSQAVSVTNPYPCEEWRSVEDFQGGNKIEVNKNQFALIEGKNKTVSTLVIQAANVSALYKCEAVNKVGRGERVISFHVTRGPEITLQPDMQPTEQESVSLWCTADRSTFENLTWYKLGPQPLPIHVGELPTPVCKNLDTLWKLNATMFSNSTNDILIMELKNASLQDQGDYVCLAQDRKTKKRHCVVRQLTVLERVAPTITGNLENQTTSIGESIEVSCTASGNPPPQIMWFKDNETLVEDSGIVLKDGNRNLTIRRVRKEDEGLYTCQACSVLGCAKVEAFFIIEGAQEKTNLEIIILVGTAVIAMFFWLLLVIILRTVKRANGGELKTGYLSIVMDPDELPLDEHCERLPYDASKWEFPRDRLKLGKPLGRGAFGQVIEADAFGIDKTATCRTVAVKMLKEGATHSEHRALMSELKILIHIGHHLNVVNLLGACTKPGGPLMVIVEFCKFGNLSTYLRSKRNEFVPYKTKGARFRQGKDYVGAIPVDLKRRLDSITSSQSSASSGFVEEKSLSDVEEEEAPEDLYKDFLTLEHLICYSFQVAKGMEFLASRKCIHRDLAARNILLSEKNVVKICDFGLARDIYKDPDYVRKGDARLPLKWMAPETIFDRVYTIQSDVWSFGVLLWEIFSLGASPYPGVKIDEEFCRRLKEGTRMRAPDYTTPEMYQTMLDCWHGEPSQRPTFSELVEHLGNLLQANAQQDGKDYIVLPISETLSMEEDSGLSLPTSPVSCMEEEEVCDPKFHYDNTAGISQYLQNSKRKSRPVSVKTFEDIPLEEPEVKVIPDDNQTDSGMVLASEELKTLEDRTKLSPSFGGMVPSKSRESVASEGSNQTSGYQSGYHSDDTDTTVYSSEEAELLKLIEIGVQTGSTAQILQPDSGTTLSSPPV
Cyclin-dependent kinase 5, sequence (Q00535 whole entry): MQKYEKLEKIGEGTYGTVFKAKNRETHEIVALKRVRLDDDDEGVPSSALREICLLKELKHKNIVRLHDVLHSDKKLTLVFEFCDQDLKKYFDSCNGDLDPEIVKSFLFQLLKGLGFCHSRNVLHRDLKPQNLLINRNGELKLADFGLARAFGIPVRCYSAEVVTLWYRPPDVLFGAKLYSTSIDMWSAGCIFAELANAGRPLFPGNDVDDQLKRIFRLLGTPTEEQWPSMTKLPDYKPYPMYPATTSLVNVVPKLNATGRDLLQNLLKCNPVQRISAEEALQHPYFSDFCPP
Death-associated protein kinase 3, sequence (O43293 whole entry): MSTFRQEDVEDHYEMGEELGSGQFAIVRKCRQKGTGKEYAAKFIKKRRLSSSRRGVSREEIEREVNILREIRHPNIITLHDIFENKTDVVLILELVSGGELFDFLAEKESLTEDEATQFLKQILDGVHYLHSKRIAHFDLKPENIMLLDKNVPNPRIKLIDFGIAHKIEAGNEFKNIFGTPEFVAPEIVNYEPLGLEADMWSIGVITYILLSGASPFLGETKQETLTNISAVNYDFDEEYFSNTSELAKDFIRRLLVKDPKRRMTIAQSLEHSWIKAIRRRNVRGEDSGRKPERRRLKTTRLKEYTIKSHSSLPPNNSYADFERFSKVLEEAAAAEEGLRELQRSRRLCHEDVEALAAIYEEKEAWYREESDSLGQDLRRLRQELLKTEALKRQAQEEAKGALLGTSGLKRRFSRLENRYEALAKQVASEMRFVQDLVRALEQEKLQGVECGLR

In the case of `CCN1/C(=C\c2ccc3ccccc3[n+]2CC)Sc2cc(C)ccc21`, the IC50 in test [1] is 16.1 µM (inactive).
Consider `CCCCCCCCCCOC(=O)C[n+]1c(COc2ccc(C)cc2)n(C)c2ccccc21`, for which, in [2], the IC50 is 10.8 µM (active).
On to `CC[C@@H](CO)NC(=O)[C@@H]1C=C2c3cccc4c3c(cn4C)C[C@H]2N(C)C1` [METHYSERGIDE MALEATE], for which, at 14-3-3 protein gamma, the IC50 is > 50 µM (not active). In addition, the EC50 in [3] is 10.3 µM (active) and 14.3 µM (active).
On to `CN1CCN(c2nc(C3=C(c4c[nH]c5ccccc45)C(=O)NC3=O)c3ccccc3n2)CC1` [SOTRASTAURIN], for which the Ki at Ephrin type-A receptor 2 was > 3.16 µM (inactive); in [4], 0.158 µM (active); in test [5], > 7.94 µM (inactive); in [6], > 7.94 µM (inactive); in test [7], > 10 µM (inactive); in test [8], > 5.01 µM (inactive). Further, the Ki in test [9] was > 7.94 µM (inactive); on Activin receptor type-1 it was > 3.98 µM (inactive); in test [10] it was 0.126 µM (active); in [11], 0.126 µM (active); in [12], > 2 µM (inactive); in test [13], > 5.01 µM (inactive). For the same compound, the inhibition constant Ki is 3.16 µM (active) in test [14], 0.398 µM (active) in test [15], > 2.51 µM (inactive) in test [16] and > 3.16 µM (inactive) in [17].

A word on the IC50: it is the concentration needed to halve the response being measured. What is called EC50 is the midpoint of the concentration-response curve. As a reminder, the Ki is a measure of affinity in units of concentration, obtained from inhibition or displacement.
